{"source": "patent US20260137084A1", "about": "“NOVALURON MIXTURES FOR EFFICIENT INSECTICIDAL CONTROLS” (ADAMA MAKHTESHIM LTD., priority 2022, published 2026)", "key": {"[1]": {"system": "H. armigera", "experiment": "Insecticidal efficacy (% control) and Colby synergy against H. armigera", "format": "in vivo, Helicoverpa armigera", "conditions": "120 hours after treatment", "description": "(§1) Different concentrations of each of the active ingredients are applied to different species of insects. The percent controls are determined sometime after treatment.\n(§2) Colby's method, is used to determine if synergy exists for a combination of active ingredients. According to Colby, the expected action (E) of active ingredients A+B is:\n(§3) [formula] • where E=expected efficacy, A and B=the efficacy of two active ingredients A and B at a given dose.\n(§4) When the percentage of control observed (O) for the combination is greater than the expected (E) percentage, there is a synergistic effect. The synergism ratio (R) is calculated as the ratio between the […].\n(§5) The insecticidal compounds A (Novaluron) and B (mix partner) are formulated as equivalent compositions to eliminate the effects of differing formulation inerts on biological activity. Efficacy of the insecticidal compositions is evaluated with reference to a scale of 0% to 100% in comparison with untreated control plots. 0 means no damage and 100 means complete destruction of the harmful pests.\n(§6) The experiments were conducted by applying commercially available formulations of Novaluron and other mixture partners, alone or with their tank-mixed compositions with the same weight ratio. The compositions were diluted with water or some other suitable solvents to the stated concentration of the active compounds.\n(§7) Each formulation with active ingredient is diluted with water or other suitable solvent(s) to the ppm (parts per million) level and biological efficacy trials on pests are conducted."}, "[2]": {"system": "S. frugiperda", "experiment": "Insecticidal efficacy (% control) and Colby synergy against S. frugiperda", "format": "in vivo, Spodoptera frugiperda", "conditions": "120 hours after treatment", "description": "as §1, §2, §3, §4, §5, §6, §7"}}, "data": [{"molecule": "O=C(NC(=O)c1c(F)cccc1F)Nc1ccc(OC(F)(F)C(F)OC(F)(F)F)c(Cl)c1", "note": "(single isomer, unassigned; (+)) [Novaluron, (+)-1-[3-chloro-4-(1,1,2-trifluoro-2-trifluoromethoxyethoxy)phenyl]-3-(2,6-difluorobenzoyl) urea]", "values": [{"measurement": "Observed % control (O)", "setting": "[1]; Rate 0.1 ppm", "result": 20, "unit": "%"}, {"measurement": "Observed % control (O)", "setting": "[1]; Rate 0.2 ppm", "result": 20, "unit": "%"}, {"measurement": "Observed % control (O)", "setting": "[2]; Rate 0.01 ppm", "result": 16, "unit": "%"}]}, {"molecule": "Cc1cccn2c(=O)c(-c3cc(Cl)cc(Cl)c3)c([O-])[n+](Cc3cnc(Cl)s3)c12", "note": "[Dicloromezotiaz]", "values": [{"measurement": "Observed % control (O)", "setting": "[1]; Rate 40 ppm", "result": 40, "unit": "%"}, {"measurement": "Observed % control (O)", "setting": "[2]; Rate 1 ppm", "result": 0, "unit": "%"}, {"measurement": "Observed % control (O)", "setting": "[2]; Rate 2.5 ppm", "result": 40, "unit": "%"}, {"measurement": "Observed % control (O)", "setting": "[2]; Rate 5 ppm", "result": 20, "unit": "%"}]}, {"molecule": "O=C(N=c1ccccn1Cc1ccc(Cl)nc1)C(F)(F)F", "note": "[Flupyrimin]", "values": [{"measurement": "Observed % control (O)", "setting": "[2]; Rate 10 ppm", "result": 10, "unit": "%"}]}, {"molecule": "CCN1OCC(NC(=O)c2ccc(C3=NOC(c4cc(Cl)c(F)c(Cl)c4)(C(F)(F)F)C3)cc2C)C1=O", "note": "(centres unmarked) [Isocycloseram]", "values": [{"measurement": "Observed % control (O)", "setting": "[1]; Rate 10 ppm", "result": 20, "unit": "%"}, {"measurement": "Observed % control (O)", "setting": "[1]; Rate 20 ppm", "result": 50, "unit": "%"}, {"measurement": "Observed % control (O)", "setting": "[2]; Rate 5 ppm", "result": 20, "unit": "%"}, {"measurement": "Observed % control (O)", "setting": "[2]; Rate 10 ppm", "result": 20, "unit": "%"}]}, {"molecule": "CCN(C(=O)CCSCCC(F)(F)F)c1cn(-c2cccnc2)nc1Cl", "note": "[Tyclopyrazoflor]", "values": [{"measurement": "Observed % control (O)", "setting": "[1]; Rate 160 ppm", "result": 20, "unit": "%"}, {"measurement": "Observed % control (O)", "setting": "[2]; Rate 5 ppm", "result": 20, "unit": "%"}]}, {"molecule": "Nicofluprole", "values": [{"measurement": "Observed % control (O)", "setting": "[1]; Rate 5 ppm", "result": 30, "unit": "%"}, {"measurement": "Observed % control (O)", "setting": "[2]; Rate 0.5 ppm", "result": 20, "unit": "%"}, {"measurement": "Observed % control (O)", "setting": "[2]; Rate 1 ppm", "result": 40, "unit": "%"}]}]}
